Assay results from patent US11090364B2, “Conjugates of a pharmaceutical agent and a moiety capable of binding to a glucose sensing protein” (SANOFI, priority 2016, dated 2021).

Each compound was assayed on HepG2 cells (assay: HepG2 assay: 14C 2-deoxy-D-glucose transport into HepG2 cells). Conditions: Homo sapiens, test compound 100 μM.
Format: cell-based
Description: For measurement of ^14C 2-deoxy-D-glucose transport into HepG2 cells, cells were seeded in collagen treated 96-well plates (Cytostar-T Plates Perkin Elmer, 40.000 cells/200 μ/well) in medium complete (MEM W/GLUT-I, EARLES (Gibco #41090) /NEAA/PS/10% FCS) and grown for 48 hours. After starvation for 2 hours with MEM W/GLUT-I, EARLES (Gibco #41090)/NEAA/no serum 100 μl/well and washing twice with 200 μL KRB buffer, cells were stimulated in a dose dependent manner by adding 20 μL of test compound dilution 0-750 μM (7.5 times higher concentration than final) or 20 μL of 188 μM Cytochalasin B solution as negative control, to 80 μL KRB buffer and incubated for 30 minutes. After compound stimulation, the transport of ^14C 2-deoxy-D-glucose was started by adding of 50 μL ^14C 2-deoxy-D-glucose solution (250 μM 2-deoxy-D-glucose cold and 15 μM ^14C 2-deoxy-D-glucose 0.13 μCi/well) for 20 minutes. Transport was stopped by adding 50 μL/well 40 μM Cytochalasin B solution. Plates were measured in a 96-well Wallac Microbeta device. The cpm (counts per minute) values were used to determine the % inhibition values for the test compounds within each experiment, which then are averaged over the number of experiments performed.

Going from O=[N+]([O-])c1ccc(NCc2cn(C[C@H]3OC(O)[C@H](O)[C@@H](O)[C@@H]3O)nn2)c2nonc12 (stereo partly drawn) [Example 75, (3R,4S,5S,6R)-6-[[4-[[(4-Nitro-2,1,3-benzoxadiazol-7-yl)amino]methyl]triazol-1-yl]methyl]tetrahydropyran-2,3,4,5-tetrol] to O=[N+]([O-])c1ccc(NCc2cn([C@@H]3O[C@H](CO)[C@@H](O)[C@H](O)[C@H]3O)nn2)c2nonc12 [Example 88, (2R,3S,4S,5R,6R)-2-(Hydroxymethyl)-6-[4-[[(4-nitro-2,1,3-benzoxadiazol-7-yl)amino]methyl]triazol-1-yl]tetrahydropyran-3,4,5-triol], the inhibition at 100 µM rises from 31.2% to 31.4%.

With O=[N+]([O-])c1ccc(NCCCCCCc2cn([C@@H]3O[C@H](CO)[C@@H](O)[C@H](O)[C@H]3O)nn2)c2nonc12 [Example 92, (2R,3S,4S,5R,6R)-2-(Hydroxymethyl)-6-[4-[6-[(4-nitro-2,1,3-benzoxadiazol-7-yl)amino]hexyl]triazol-1-yl]tetrahydropyran-3,4,5-triol] the inhibition at 100 µM was 23.1%.
